Publication PMC6484444 (Analytical biochemistry, 2018)

Key:
ClpP1P2 (ClpP1) = ClpP1P2 (ClpP1) (Mycobacterium tuberculosis, UniProt P9WPC3+P9WPC5); format: biochemical
[1] = tested on: Nc1ncnc2c1ncn2[C@@H]1O[C@H](COP(=O)(O)OP(=O)(O)OP(=O)(O)O)[C@@H](O)[C@H]1O; test: purified protein

Chain of ClpP1P2 (ClpP1) (P9WPC5 whole entry, looked up): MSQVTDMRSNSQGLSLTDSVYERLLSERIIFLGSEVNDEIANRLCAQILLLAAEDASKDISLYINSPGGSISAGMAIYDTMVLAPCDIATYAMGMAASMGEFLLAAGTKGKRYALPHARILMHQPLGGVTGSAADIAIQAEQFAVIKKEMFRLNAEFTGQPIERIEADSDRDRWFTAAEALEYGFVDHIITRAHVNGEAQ
Chain of ClpP1P2 (ClpP1) (P9WPC3 whole entry, looked up): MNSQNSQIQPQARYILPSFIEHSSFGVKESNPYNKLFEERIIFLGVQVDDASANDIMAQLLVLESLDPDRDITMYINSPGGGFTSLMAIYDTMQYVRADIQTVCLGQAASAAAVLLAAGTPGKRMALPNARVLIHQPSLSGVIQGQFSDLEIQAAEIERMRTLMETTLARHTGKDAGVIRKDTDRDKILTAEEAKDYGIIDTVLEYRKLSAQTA

Compound: O=c1oc(Cl)c(Cl)c2ccccc12 [DCC, 3,4-Dichloroisocoumarin]
- IC50 (ClpP1P2 (ClpP1)): 80 µM

Compound: ClpC1 (Mycobacterium tuberculosis H37Rv)
- Km [1]: 1400 ± 100 µM
